These results are taken from patent US8263610B2, “Substituted imidazolyl-5,6-dihydrobenzo[N]isoquinoline compounds” (ArQule, Inc., priority 2008, dated 2012).

The assay concerns the target T1, FGFR2(N549H) (Homo sapiens, UniProt P21802, N549H).
T1 construct: purchased Millipore 14-742
Briefly: fluorescent ELISA assay for inhibitors of FGFR2 kinase. Format: biochemical. The conditions noted are these: 37 μM Pyk2 substrate, 12.5 μM ATP, 0.5 μM FGFR2 enzyme, 60 minutes. The method, then:
The enzymatic assays described herein are conducted according to the following procedures from commercially available reagents. In one, non limiting, example, a fluorescent ELISA assay is used to identify and characterize inhibitors of FGFR2 kinase as described herein. This heterogeneous assay utilizes a biotinylated peptide with a tyrosine motif as a substrate and an anti-phospho-tyrosine antibody to measure phosphorylation of the substrate. The reaction is initiated by adding the test compound, 37 μM Pyk2 substrate (Midwest Biotech, Cat. #MBT2383), 12.5 μM ATP (Roche, Cat. #11 140 965 001) and 0.5 μM FGFR2 enzyme (Millipore, Cat. #14-742) sequentially to a non-binding polypropylene V-well plate. All reagents are in an assay buffer consisting of: 50 mM Tris-HCL, 0.02 mg/ml BSA, 10 mM MgCl2, 0.1 mM Na3VO4, 1 mM EGTA, 75 μM ATP, 0.01% NP-40, 2 mM DTT and 10% glycerol. The reaction is incubated for 60 minutes. As the reaction proceeds, FGFR2 phosphorylates tyrosines in the peptide. The reaction mixture is then moved to a blocked streptavidin-coated Nunc Maxisorb plate (coated with 100 ng streptavidin from Pierce (Cat. #15-124) per well), allowing for the capture of the biotinylated peptide. Peptides are captured for 30 minutes at room temperature, the phosphorylation of peptides continues during this phase. The reaction is stopped by washing the streptavidin-coated plate 6 times with TBST. Phosphorylated peptide is detected by adding anti-phospho-tyrosine antibody (Cell Signaling, Cat. #9411, diluted 1:3000) to the streptavidin-coated plate. Unbound anti-phospho-tyrosine antibody is removed by washing the streptavidin-coated plate 6 times with TBST. Secondary detection is performed using alkaline phosphatase tagged goat anti-mouse antibody (Pierce, Cat. #31320, diluted 1:4000) for one hour. Unbound secondary antibody is removed by washing the streptavidin-coated plate 6 times with TBST. The fluorescent readout is initiated by adding to the streptavidin-coated plate Promega Attophos substrate (Promega, Cat. #S1000, dilution=6 mg/10 ml), which, when dephosphorylated by alkaline phosphatase, emits a fluorescent signal of 595 nm in wavelength when excited by a signal of 400 nm in wavelength. The reading of the 595 nm signal is done on the Perkin Elmer Envision system. Compounds which prevent FGFR2 from phosphorylating the peptide result in a lower fluorescent signal. The 595 nm fluorescent signal is directly proportional to the activity of FGFR2. Thus, the inhibition of FGFR2 by compounds is monitored by the decrease in the 595 nm fluorescent signal.
A general note: ELISA stands for enzyme-linked immunosorbent assay.

As a reminder, the IC50 is the point on the concentration scale where inhibition reaches its midpoint.

T1 sequence (P21802 22-821 N549H): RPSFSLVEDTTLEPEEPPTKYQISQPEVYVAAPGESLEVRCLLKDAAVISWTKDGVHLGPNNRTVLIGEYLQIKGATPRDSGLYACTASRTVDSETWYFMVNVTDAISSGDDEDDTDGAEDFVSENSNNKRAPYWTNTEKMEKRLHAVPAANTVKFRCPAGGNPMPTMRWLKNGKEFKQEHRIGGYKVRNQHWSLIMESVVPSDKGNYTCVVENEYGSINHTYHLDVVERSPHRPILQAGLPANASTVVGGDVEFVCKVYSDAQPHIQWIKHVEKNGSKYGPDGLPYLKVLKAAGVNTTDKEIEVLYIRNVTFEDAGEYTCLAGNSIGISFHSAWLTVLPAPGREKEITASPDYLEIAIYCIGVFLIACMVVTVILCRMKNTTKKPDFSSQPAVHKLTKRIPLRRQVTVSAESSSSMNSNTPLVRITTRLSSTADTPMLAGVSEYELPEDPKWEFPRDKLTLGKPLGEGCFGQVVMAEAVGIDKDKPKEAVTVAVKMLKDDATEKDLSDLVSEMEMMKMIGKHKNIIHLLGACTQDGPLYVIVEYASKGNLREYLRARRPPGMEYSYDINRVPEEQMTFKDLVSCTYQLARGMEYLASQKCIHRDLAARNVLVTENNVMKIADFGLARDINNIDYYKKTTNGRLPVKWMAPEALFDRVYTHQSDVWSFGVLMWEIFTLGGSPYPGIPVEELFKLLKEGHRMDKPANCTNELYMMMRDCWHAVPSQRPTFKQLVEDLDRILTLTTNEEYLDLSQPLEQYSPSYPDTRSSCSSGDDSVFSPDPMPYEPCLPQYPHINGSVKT

In turn, `Clc1ccc(C2Cc3cnc4[nH]ncc4c3-c3ccccc32)cc1Cl` (stereo not shown) [7-(3,4-dichlorophenyl)-6,7-dihydro-3H-benzo[f]pyrazolo[3,4-c]isoquinoline] registered an IC50 of 20.8 µM. In other words, the double-digit micromolar range.

On to `Fc1ccc(C2Cc3cnc4[nH]ncc4c3-c3ccccc32)cc1` (stereo not shown) [7-(4-fluorophenyl)-6,7-dihydro-3H-benzo[f]pyrazolo[3,4-c]isoquinoline], for which the IC50 was 4.07 µM.

Consider `c1ccc(C2Cc3cnc4[nH]ncc4c3-c3ccccc32)cc1` (stereo not shown) [7-phenyl-6,7-dihydro-3H-benzo[f]pyrazolo[3,4-c]isoquinoline], for which half-maximal inhibition (IC50) required 0.224 µM.

Take `Cc1cc(C)c2c(c1)-c1c(cnc3[nH]ncc13)CC2` [8,10-dimethyl-6,7-dihydro-3H-benzo[f]pyrazolo[3,4-c]isoquinoline]: the IC50 was determined as 6.81 µM.
